Laboratory results reported in paper PMC12655527, “An Investigational Study on the Role of ADME Agents’ Genetic Variation on DD217 Pharmacokinetics and Safety Profile” (Pharmaceuticals, 2025).

What was measured:
CYP = tested on: CYP; parameters: method as in DrugBank. Betrixaban (DB12364); details: ref DrugBank. Betrixaban (DB12364); cited from earlier work
P-glycoprotein (ABCB1) = tested on: P-glycoprotein (ABCB1); parameters: method as in earlier work; details: cited from earlier work
[1] = tested on: patients undergoing knee replacement surgery; assay: Thromboembolic complications (DVT/PE) during 14-day therapy, phase II trial; assay type: in vivo, human; details: 14 days
Source text: (§1) The design, eligibility criteria, and outcomes of the phase II clinical trial evaluating the safety and tolerability of DD217 (NCT05189002, ClinicalTrials.gov) have been described previously. Briefly, this was a multicenter, double-blind, randomized, prospective phase II study designed to determine the optimal dosing regimen and to assess the safety and efficacy of DD217 for the prevention of venous thromboembolism (VTE) in patients undergoing knee replacement surgery. Patients were randomized into one of three groups: two groups received oral DD217 at doses of 40 mg or 60 mg once daily, starting on the morning of the first postoperative day, and one group received the active comparator, dalteparin sodium. The treatment duration was 14 days.
(§2) In total, seven cases of DVT/PE were documented during the trial: four in the DD217 40 mg/day group, one in the DD217 60 mg/day group, and two in the dalteparin sodium group. In addition, two bleeding events were recorded: one clinically relevant non-major bleed in the DD217 60 mg/day group and one clinically non-relevant minor bleed in the dalteparin sodium group.

[2] = tested on: patients undergoing knee replacement surgery; assay: Bleeding events during 14-day therapy, phase II trial; assay type: in vivo, human
Source text: as §1, §2

| Compound | share of metabolism via CYP (CYP) | P-glycoprotein (ABCB1) substrate status (P-glycoprotein (ABCB1)) | cases of DVT/PE ([1]; dalteparin sodium group (18 patients)) | PE/DVT, n (safety outcomes) ([1]; dalteparin sodium, of 18 patients) | bleeding events ([2]; dalteparin sodium group, clinically non-relevant minor bleed) | Bleeding, n (safety outcomes) ([2]; dalteparin sodium, 14 days, of 18 patients) |
| --- | --- | --- | --- | --- | --- | --- |
| COc1ccc(NC(=O)c2ccc(C(=N)N(C)C)cc2)c(C(=O)Nc2ccc(Cl)cn2)c1 [Betrixaban] | < 1% | P-glycoprotein (ABCB1) substrate |  |  |  |  |
| dalteparin sodium [reference compound] |  |  | two | 2 n | one | 1 n |
